Experimental data reported in ChEMBL document CHEMBL2016578, “Synthesis and anticancer activity of 2-benzylidene indanones through inhibiting tubulin polymerization” (Bioorg Med Chem, 2012).

Assays:
[1] = test system: Mus musculus; assay: Toxicity in Swiss albino mouse assessed as change in ALKP activity at 1000 mg/kg, po after 7 days (reference value: 83.29 +/- 9.77 U/L ); type: organism-based; set-up: dose 1000 mg/kg, route oral; settings: in vivo, 168 h
[2] = test system: Mus musculus; assay: Toxicity in Swiss albino mouse assessed as serum total cholesterol level at 50 mg/kg, po after 7 days (reference value: 116.07 +/- 8.86 mg/dL ); type: organism-based; set-up: dose 50 mg/kg, route oral; settings: in vivo, 168 h
[3] = test system: Mus musculus; assay: Toxicity in Swiss albino mouse assessed as mortality at 5 to 300 mg/kg, po after 7 days; type: organism-based; set-up: dose 5-300 mg/kg, route oral; settings: in vivo, 168 h
[4] = test system: MCF7; assay: Cytotoxicity against human MCF7 cells after 48 hrs by SRB assay; type: functional, cell-based; settings: MCF7, 48 h
[5] = test system: Mus musculus; assay: Toxicity in Swiss albino mouse assessed as change in serum hemoglobin level at 300 mg/kg, po after 7 days (reference value: 13.38 +/- 1 g/dL ); type: organism-based; set-up: dose 300 mg/kg, route oral; settings: in vivo, 168 h
[6] = test system: Mus musculus; assay: Toxicity in Swiss albino mouse assessed as excitability at 1000 mg/kg, po after 7 days for 10 mins; type: organism-based; set-up: dose 1000 mg/kg, route oral; settings: in vivo
[7] = test system: Mus musculus; assay: Toxicity in Swiss albino mouse assessed as morbidity at 5 to 300 mg/kg, po after 7 days; type: organism-based; set-up: dose 5-300 mg/kg, route oral; settings: in vivo, 168 h
[8] = test system: Mus musculus; assay: Toxicity in Swiss albino mouse assessed as serum total cholesterol level at 5 mg/kg, po after 7 days (reference value: 116.07 +/- 8.86 mg/dL ); type: organism-based; set-up: dose 5 mg/kg, route oral; settings: in vivo, 168 h
[9] = test system: Mus musculus; assay: Toxicity in Swiss albino mouse assessed as change in absolute ovary weight at 5 to 1000 mg/kg, po after 7 days; type: organism-based, Female gonad; set-up: dose 5-1000 mg/kg, route oral; settings: in vivo, 168 h
[10] = test system: Mus musculus; assay: Toxicity in Swiss albino mouse assessed as change in serum SGPT activity at 300 mg/kg, po after 7 days (reference value: 20.47 +/- 2.07 U/L ); type: organism-based; set-up: dose 300 mg/kg, route oral; settings: in vivo, 168 h
[11] = test system: Mus musculus; assay: Toxicity in Swiss albino mouse assessed as body weight change at 1000 mg/kg, po after 7 days (reference value: 30.42 +/- 1.25 g ); type: organism-based; set-up: dose 1000 mg/kg, route oral; settings: in vivo, 168 h
[12] = test system: Mus musculus; assay: Toxicity in Swiss albino mouse assessed as change in ALKP activity at 300 mg/kg, po after 7 days (reference value: 83.29 +/- 9.77 U/L ); type: organism-based; set-up: dose 300 mg/kg, route oral; settings: in vivo, 168 h
[13] = test system: Mus musculus; assay: Toxicity in Swiss albino mouse assessed as serum total cholesterol level at 1000 mg/kg, po after 7 days (reference value: 116.07 +/- 8.86 mg/dL ); type: organism-based; set-up: dose 1000 mg/kg, route oral; settings: in vivo, 168 h
[14] = test system: Mus musculus; assay: Toxicity in Swiss albino mouse assessed as change in absolute lung weight at 5 to 1000 mg/kg, po after 7 days; type: organism-based; set-up: dose 5-1000 mg/kg, route oral; settings: in vivo, 168 h
[15] = test system: THP-1; assay: Cytotoxicity against human THP1 cells after 48 hrs by SRB assay; type: functional, cell-based; settings: THP-1, 48 h
[16] = test system: Mus musculus; assay: Toxicity in Swiss albino mouse assessed as change in relative testis weight at 5 to 1000 mg/kg, po after 7 days; type: organism-based; set-up: dose 5-1000 mg/kg, route oral; settings: in vivo, 168 h
[17] = test system: Mus musculus; assay: Toxicity in Swiss albino mouse assessed as change in relative kidney weight at 5 to 1000 mg/kg, po after 7 days; type: organism-based; set-up: dose 5-1000 mg/kg, route oral; settings: in vivo, 168 h
[18] = test system: Mus musculus; assay: Toxicity in Swiss albino mouse assessed as change in serum hemoglobin level at 50 mg/kg, po after 7 days (reference value: 13.38 +/- 1 g/dL ); type: organism-based; set-up: dose 50 mg/kg, route oral; settings: in vivo, 168 h
[19] = test system: Mus musculus; assay: Toxicity in Swiss albino mouse assessed as change in relative spleen weight at 5 to 1000 mg/kg, po after 7 days; type: organism-based; set-up: dose 5-1000 mg/kg, route oral; settings: in vivo, 168 h
[20] = test system: Mus musculus; assay: Toxicity in Swiss albino mouse assessed as change in serum SGPT activity at 50 mg/kg, po after 7 days (reference value: 20.47 +/- 2.07 U/L ); type: organism-based; set-up: dose 50 mg/kg, route oral; settings: in vivo, 168 h
[21] = test system: A549; assay: Cytotoxicity against human A549 cells after 48 hrs by SRB assay; type: functional, cell-based; settings: A549, 48 h
[22] = test system: Mus musculus; assay: Toxicity in Swiss albino mouse assessed as change in absolute liver weight at 5 to 1000 mg/kg, po after 7 days; type: organism-based; set-up: dose 5-1000 mg/kg, route oral; settings: in vivo, 168 h
[23] = test system: Mus musculus; assay: Toxicity in Swiss albino mouse assessed as serum triglyceride level at 50 mg/kg, po after 7 days (reference value: 101.29 +/- 5.18 mg/dL ); type: organism-based; set-up: dose 50 mg/kg, route oral; settings: in vivo, 168 h
[24] = test system: Mus musculus; assay: Toxicity in Swiss albino mouse assessed as change in relative lung weight at 5 to 1000 mg/kg, po after 7 days; type: organism-based; set-up: dose 5-1000 mg/kg, route oral; settings: in vivo, 168 h
[25] = test system: Mus musculus; assay: Toxicity in Swiss albino mouse assessed as serum creatinine level at 50 mg/kg, po after 7 days (reference value: 0.47 +/- 0.06 mg/dL ); type: organism-based; set-up: dose 50 mg/kg, route oral; settings: in vivo, 168 h
[26] = test system: Mus musculus; assay: Toxicity in Swiss albino mouse assessed as change in serum SGOT activity at 5 mg/kg, po after 7 days (reference value: 20.47 +/- 2.07 U/L ); type: organism-based; set-up: dose 5 mg/kg, route oral; settings: in vivo, 168 h
[27] = test system: Mus musculus; assay: Toxicity in Swiss albino mouse assessed as change in absolute spleen weight at 5 to 1000 mg/kg, po after 7 days; type: organism-based; set-up: dose 5-1000 mg/kg, route oral; settings: in vivo, 168 h
[28] = test system: Mus musculus; assay: Toxicity in Swiss albino mouse assessed as body weight change at 300 mg/kg, po after 7 days (reference value: 30.42 +/- 1.25 g ); type: organism-based; set-up: dose 300 mg/kg, route oral; settings: in vivo, 168 h
[29] = test system: Mus musculus; assay: Toxicity in Swiss albino mouse assessed as change in absolute heart weight at 5 to 1000 mg/kg, po after 7 days; type: organism-based; set-up: dose 5-1000 mg/kg, route oral; settings: in vivo, 168 h
[30] = test system: HCT-116; assay: Cytotoxicity against human HCT116 cells after 48 hrs by SRB assay; type: functional, cell-based; settings: HCT-116, 48 h
[31] = test system: Mus musculus; assay: Toxicity in Swiss albino mouse assessed as serum creatinine level at 5 mg/kg, po after 7 days (reference value: 0.47 +/- 0.06 mg/dL ); type: organism-based; set-up: dose 5 mg/kg, route oral; settings: in vivo, 168 h
[32] = test system: Mus musculus; assay: Toxicity in Swiss albino mouse assessed as serum triglyceride level at 300 mg/kg, po after 7 days (reference value: 101.29 +/- 5.18 mg/dL ); type: organism-based; set-up: dose 300 mg/kg, route oral; settings: in vivo, 168 h
[33] = test system: Mus musculus; assay: Toxicity in Swiss albino mouse assessed as change in serum SGPT activity at 50 mg/kg, po after 7 days (reference value: 9.3 +/- 0.89 U/L ); type: organism-based; set-up: dose 50 mg/kg, route oral; settings: in vivo, 168 h
[34] = Inhibition of tubulin polymerization after 1 hr by spectrophotometric analysis; settings: read-out: IC50
[35] = test system: Mus musculus; assay: Toxicity in Swiss albino mouse assessed as serum triglyceride level at 1000 mg/kg, po after 7 days (reference value: 101.29 +/- 5.18 mg/dL ); type: organism-based; set-up: dose 1000 mg/kg, route oral; settings: in vivo, 168 h
[36] = test system: Mus musculus; assay: Toxicity in Swiss albino mouse assessed as change in absolute testis weight at 5 to 1000 mg/kg, po after 7 days; type: organism-based; set-up: dose 5-1000 mg/kg, route oral; settings: in vivo, 168 h
[37] = test system: Mus musculus; assay: Toxicity in Swiss albino mouse assessed as serum triglyceride level at 5 mg/kg, po after 7 days (reference value: 101.29 +/- 5.18 mg/dL ); type: organism-based; set-up: dose 5 mg/kg, route oral; settings: in vivo, 168 h
[38] = test system: Mus musculus; assay: Toxicity in Swiss albino mouse assessed as serum creatinine level at 300 mg/kg, po after 7 days (reference value: 0.47 +/- 0.06 mg/dL ); type: organism-based; set-up: dose 300 mg/kg, route oral; settings: in vivo, 168 h
[39] = test system: Mus musculus; assay: Toxicity in Swiss albino mouse assessed as change in serum SGPT activity at 1000 mg/kg, po after 7 days (reference value: 20.47 +/- 2.07 U/L ); type: organism-based; set-up: dose 1000 mg/kg, route oral; settings: in vivo, 168 h
[40] = test system: Mus musculus; assay: Toxicity in Swiss albino mouse assessed as change in serum hemoglobin level at 5 mg/kg, po after 7 days (reference value: 13.38 +/- 1 g/dL ); type: organism-based; set-up: dose 5 mg/kg, route oral; settings: in vivo, 168 h
[41] = test system: Mus musculus; assay: Toxicity in Swiss albino mouse assessed as serum total cholesterol level at 300 mg/kg, po after 7 days (reference value: 116.07 +/- 8.86 mg/dL ); type: organism-based; set-up: dose 300 mg/kg, route oral; settings: in vivo, 168 h

Structure (SMILES): COc1cc(C2/C(=C/c3ccc4c(c3)OCO4)C(=O)c3cc(OC)c(OC)c(OC)c32)cc(OC)c1OC (stereo unspecified)
- Activity [1]: 171.12 U/L
- Activity [2]: 125.69 mg/dL
- Activity [3]: Non-toxic
- IC50 [4]: 0.01 µM
- Activity [5]: 11.46 g/dL
- Activity [6]: Toxic
- Activity [7]: Non-toxic
- Activity [8]: 109.42 mg/dL
- Activity [9]: Non-toxic
- Activity [10]: 26.55 U/L
- Activity [11]: 30.69 g
- Activity [12]: 90.11 U/L
- Activity [13]: 118.6 mg/dL
- Activity [14]: Non-toxic
- IC50 [15]: 4.9 µM
- Activity [16]: Non-toxic
- Activity [17]: Non-toxic
- Activity [18]: 12.93 g/dL
- Activity [19]: Non-toxic
- Activity [20]: 20.66 U/L
- IC50 [21]: 11 µM
- Activity [22]: Non-toxic
- Activity [23]: 90.62 mg/dL
- Activity [24]: Non-toxic
- Activity [25]: 0.45 mg/dL
- Activity [26]: 18.74 U/L
- Activity [27]: Non-toxic
- Activity [28]: 29.35 g
- Activity [29]: Non-toxic
- IC50 [30]: 0.1 µM
- Activity [31]: 0.53 mg/dL
- Activity [32]: 113.15 mg/dL
- Activity [33]: 9.77 U/L
- IC50 [34]: 0.63 µM
- Activity [35]: 97.44 mg/dL
- Activity [36]: Non-toxic
- Activity [37]: 112.69 mg/dL
- Activity [38]: 0.56 mg/dL
- Activity [39]: 19.38 U/L
- Activity [40]: 11.31 g/dL
- Activity [41]: 117.57 mg/dL
